Experimental data published in ChEMBL document CHEMBL3400114, “The design, synthesis and biological evaluation of conformationally restricted 4-substituted-2,6-dimethylfuro[2,3-d]pyrimidines as multi-targeted receptor tyrosine kinase and microtubule inhibitors as potential antitumor agents” (Bioorg Med Chem, 2015).

Columns and labels:
[1] = Induction of microtubule depolymerization in rat A10 cells after 18 hrs by indirect immunofluorescence assay; type: cell-based
Tubulin = Tubulin (Bos taurus, UniProt Q6B856+Q862L2+Q862F3); experiment: Inhibition of bovine brain tubulin assembly
[2] = Antiproliferative activity against human SKOV3-MDR1-M6/6 cells overexpressing wild type beta3 tubulin after 48 hrs by sulforhodamine B assay; type: functional, cell-based; conditions: SKOV3-MDR1-M6/6, 48 h
[3] = molecular target: Vascular endothelial growth factor receptor 2 (Homo sapiens, UniProt P35968); type: cell-based, U-251
Sequence of Vascular endothelial growth factor receptor 2 (P35968 whole entry): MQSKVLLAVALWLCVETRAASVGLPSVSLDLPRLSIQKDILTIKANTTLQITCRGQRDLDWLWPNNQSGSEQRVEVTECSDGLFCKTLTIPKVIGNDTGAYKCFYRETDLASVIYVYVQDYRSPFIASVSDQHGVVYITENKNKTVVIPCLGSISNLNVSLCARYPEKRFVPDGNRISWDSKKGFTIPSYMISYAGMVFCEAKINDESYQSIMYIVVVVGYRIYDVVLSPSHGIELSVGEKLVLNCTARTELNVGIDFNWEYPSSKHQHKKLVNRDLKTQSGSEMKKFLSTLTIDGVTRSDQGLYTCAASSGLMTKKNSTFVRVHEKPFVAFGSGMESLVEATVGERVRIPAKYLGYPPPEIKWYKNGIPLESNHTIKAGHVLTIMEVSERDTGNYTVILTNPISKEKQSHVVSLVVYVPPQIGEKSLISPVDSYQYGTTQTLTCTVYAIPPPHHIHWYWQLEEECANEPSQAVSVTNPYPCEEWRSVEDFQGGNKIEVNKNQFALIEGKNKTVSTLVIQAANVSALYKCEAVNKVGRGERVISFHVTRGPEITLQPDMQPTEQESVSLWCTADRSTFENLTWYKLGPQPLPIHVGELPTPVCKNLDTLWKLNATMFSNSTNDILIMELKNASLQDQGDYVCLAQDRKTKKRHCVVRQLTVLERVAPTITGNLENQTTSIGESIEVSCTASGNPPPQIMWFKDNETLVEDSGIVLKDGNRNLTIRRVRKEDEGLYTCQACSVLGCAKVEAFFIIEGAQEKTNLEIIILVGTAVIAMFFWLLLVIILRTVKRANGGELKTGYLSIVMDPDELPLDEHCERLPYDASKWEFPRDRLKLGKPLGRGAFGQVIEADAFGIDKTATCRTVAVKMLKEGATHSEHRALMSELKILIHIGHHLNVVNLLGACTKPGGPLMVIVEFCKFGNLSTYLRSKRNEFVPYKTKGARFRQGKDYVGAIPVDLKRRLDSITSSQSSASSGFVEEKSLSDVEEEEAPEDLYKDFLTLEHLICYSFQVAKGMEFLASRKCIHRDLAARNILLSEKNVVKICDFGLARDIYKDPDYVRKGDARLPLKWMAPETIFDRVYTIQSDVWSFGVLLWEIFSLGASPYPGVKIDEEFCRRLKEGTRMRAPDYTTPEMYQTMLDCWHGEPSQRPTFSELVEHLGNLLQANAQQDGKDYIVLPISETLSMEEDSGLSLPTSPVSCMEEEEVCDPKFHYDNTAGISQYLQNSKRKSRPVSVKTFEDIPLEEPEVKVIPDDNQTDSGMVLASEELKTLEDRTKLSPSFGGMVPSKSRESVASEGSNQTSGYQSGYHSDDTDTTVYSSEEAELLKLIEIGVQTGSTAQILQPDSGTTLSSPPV

A-431 = experiment: Antiproliferative activity against human A431 cells after 48 hrs by sulforhodamine B assay; type: functional, cell-based; conditions: A-431, 48 h
[4] = molecular target: Epidermal growth factor receptor (Homo sapiens, UniProt P00533); type: cell-based, A-431
Sequence of Epidermal growth factor receptor (P00533 whole entry): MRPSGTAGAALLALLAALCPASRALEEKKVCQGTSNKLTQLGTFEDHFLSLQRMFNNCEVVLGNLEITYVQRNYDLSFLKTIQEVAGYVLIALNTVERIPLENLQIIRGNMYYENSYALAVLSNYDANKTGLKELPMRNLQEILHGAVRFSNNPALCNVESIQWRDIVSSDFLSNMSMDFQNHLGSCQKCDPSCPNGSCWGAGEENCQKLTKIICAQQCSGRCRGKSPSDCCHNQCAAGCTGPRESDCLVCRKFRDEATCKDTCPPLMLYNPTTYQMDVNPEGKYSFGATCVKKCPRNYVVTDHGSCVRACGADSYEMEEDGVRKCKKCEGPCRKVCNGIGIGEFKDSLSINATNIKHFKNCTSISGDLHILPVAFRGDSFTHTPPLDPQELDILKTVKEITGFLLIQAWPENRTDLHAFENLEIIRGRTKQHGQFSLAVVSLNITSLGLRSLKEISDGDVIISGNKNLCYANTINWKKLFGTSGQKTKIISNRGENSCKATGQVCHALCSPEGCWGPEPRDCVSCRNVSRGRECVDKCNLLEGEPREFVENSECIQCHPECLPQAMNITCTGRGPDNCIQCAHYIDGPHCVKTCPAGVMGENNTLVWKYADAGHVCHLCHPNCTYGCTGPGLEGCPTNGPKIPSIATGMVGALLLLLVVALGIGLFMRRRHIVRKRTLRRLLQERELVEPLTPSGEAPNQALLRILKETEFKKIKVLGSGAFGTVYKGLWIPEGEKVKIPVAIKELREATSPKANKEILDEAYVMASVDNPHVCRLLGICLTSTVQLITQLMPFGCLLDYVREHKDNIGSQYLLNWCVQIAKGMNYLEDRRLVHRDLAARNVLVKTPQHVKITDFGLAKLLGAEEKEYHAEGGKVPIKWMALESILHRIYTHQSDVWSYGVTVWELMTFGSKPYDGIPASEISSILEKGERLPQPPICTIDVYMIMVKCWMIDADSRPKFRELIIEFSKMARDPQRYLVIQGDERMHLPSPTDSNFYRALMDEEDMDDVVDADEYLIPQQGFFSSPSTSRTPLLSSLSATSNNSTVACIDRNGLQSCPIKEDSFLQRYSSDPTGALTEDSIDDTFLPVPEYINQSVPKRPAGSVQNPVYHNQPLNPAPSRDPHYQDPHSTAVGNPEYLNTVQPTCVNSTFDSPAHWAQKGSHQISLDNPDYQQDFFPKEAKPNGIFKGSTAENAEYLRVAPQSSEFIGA

[5] = molecular target: Platelet-derived growth factor receptor beta (Homo sapiens, UniProt P09619); experiment: Inhibition of PDGFR-beta in human U251 cells compound pretreated for 60 min before PDGF-BB stimulation for 10 mins by phosphotyrosine ELISA cytoblot method; type: cell-based, U-251
Sequence of Platelet-derived growth factor receptor beta (P09619 whole entry): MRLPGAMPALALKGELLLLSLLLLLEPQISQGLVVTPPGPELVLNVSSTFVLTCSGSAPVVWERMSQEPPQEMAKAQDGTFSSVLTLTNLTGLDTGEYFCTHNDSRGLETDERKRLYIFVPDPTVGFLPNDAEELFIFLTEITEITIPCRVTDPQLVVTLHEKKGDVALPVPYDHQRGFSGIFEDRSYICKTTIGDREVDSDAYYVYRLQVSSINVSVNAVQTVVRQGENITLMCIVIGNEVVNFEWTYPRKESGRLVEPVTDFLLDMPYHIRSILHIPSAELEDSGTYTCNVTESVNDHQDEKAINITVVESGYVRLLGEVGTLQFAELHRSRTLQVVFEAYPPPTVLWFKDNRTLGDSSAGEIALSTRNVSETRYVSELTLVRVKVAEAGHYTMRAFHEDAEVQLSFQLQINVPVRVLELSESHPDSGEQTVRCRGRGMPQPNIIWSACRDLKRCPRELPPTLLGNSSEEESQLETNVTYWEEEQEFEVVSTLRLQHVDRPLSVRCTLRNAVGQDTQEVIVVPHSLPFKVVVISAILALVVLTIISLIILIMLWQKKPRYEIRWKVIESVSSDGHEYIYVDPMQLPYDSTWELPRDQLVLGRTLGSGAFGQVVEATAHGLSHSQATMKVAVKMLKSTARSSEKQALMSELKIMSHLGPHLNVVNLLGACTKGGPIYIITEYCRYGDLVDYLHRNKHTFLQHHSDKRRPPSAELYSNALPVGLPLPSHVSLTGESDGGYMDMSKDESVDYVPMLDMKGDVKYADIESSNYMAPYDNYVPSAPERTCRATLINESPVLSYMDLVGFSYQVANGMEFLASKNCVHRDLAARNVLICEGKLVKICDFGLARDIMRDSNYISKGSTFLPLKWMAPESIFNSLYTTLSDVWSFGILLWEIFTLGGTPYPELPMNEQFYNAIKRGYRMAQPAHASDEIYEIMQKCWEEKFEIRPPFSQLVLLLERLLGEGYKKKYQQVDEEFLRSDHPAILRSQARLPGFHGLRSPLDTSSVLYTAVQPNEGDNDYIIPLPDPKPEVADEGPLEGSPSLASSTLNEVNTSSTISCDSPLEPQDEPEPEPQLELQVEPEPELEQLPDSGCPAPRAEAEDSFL

SK-MEL-2 = experiment: Growth inhibition of human SK-MEL-2 cells after 48 hrs by sulforhodamine B assay; type: functional; conditions: SK-MEL-2, 48 h
NCI-H522 = experiment: Growth inhibition of human NCI-H522 cells after 48 hrs by sulforhodamine B assay; type: functional; conditions: NCI-H522, 48 h
M14 = experiment: Growth inhibition of human M14 cells after 48 hrs by sulforhodamine B assay; type: functional; conditions: M14, 48 h
KM12 = experiment: Growth inhibition of human KM12 cells after 48 hrs by sulforhodamine B assay; type: functional; conditions: KM12, 48 h
MCF7 = experiment: Growth inhibition of human MCF7 cells after 48 hrs by sulforhodamine B assay; type: functional; conditions: MCF7, 48 h
[6] = Growth inhibition of human HCT116 cells after 48 hrs by sulforhodamine B assay; type: functional; conditions: HCT-116, 48 h
HeLa [7] = experiment: Antiproliferative activity against human HeLa cells overexpressing wild type beta3 tubulin after 48 hrs by sulforhodamine B assay; type: functional, cell-based
[8] = Growth inhibition of human […] cells after 48 hrs by sulforhodamine B assay; type: functional
[9] = Growth inhibition of human SF295 cells after 48 hrs by sulforhodamine B assay; type: functional; conditions: SF-295, 48 h
SR = experiment: Growth inhibition of human SR cells after 48 hrs by sulforhodamine B assay; type: functional
[10] = Growth inhibition of human RXF393 cells after 48 hrs by sulforhodamine B assay; type: functional; conditions: RXF 393, 48 h
ACHN = experiment: Growth inhibition of human ACHN cells after 48 hrs by sulforhodamine B assay; type: functional
K562 = experiment: Growth inhibition of human K562 cells after 48 hrs by sulforhodamine B assay; type: functional; conditions: K562, 48 h
SK-OV-3 [11] = experiment: Resistance ratio of IC50 for human SKOV3-MDR1-M6/6 cells to IC50 for human SKOV3 cells; type: functional
[12] = Growth inhibition of human HOP92 cells after 48 hrs by sulforhodamine B assay; type: functional; conditions: HOP-92, 48 h
[13] = Growth inhibition of human UO31 cells after 48 hrs by sulforhodamine B assay; type: functional; conditions: UO-31, 48 h
CCRF-CEM = experiment: Growth inhibition of human CCRF-CEM cells after 48 hrs by sulforhodamine B assay; type: functional
HOP-62 = experiment: Growth inhibition of human HOP62 cells after 48 hrs by sulforhodamine B assay; type: functional; conditions: HOP-62, 48 h
[14] = Ratio of EC50 for microtubule depolymerization in rat A10 cells to IC50 for human MDA-MB-435 cells
[15] = Growth inhibition of human OVCAR8 cells after 48 hrs by sulforhodamine B assay; type: functional; conditions: OVCAR-8, 48 h
TK-10 = experiment: Growth inhibition of human TK10 cells after 48 hrs by sulforhodamine B assay; type: functional; conditions: TK-10, 48 h
[16] = Growth inhibition of human OVCAR3 cells after 48 hrs by sulforhodamine B assay; type: functional; conditions: OVCAR-3, 48 h
[17] = Growth inhibition of human PC3 cells after 48 hrs by sulforhodamine B assay; type: functional; conditions: PC-3, 48 h
[18] = Growth inhibition of human UACC62 cells after 48 hrs by sulforhodamine B assay; type: functional; conditions: UACC-62, 48 h
[19] = Growth inhibition of human Hs 578T cells after 48 hrs by sulforhodamine B assay; type: functional
HL-60(TB) = experiment: Growth inhibition of human HL-60(TB) cells after 48 hrs by sulforhodamine B assay; type: functional; conditions: HL-60, 48 h
[20] = Growth inhibition of human MOLT4 cells after 48 hrs by sulforhodamine B assay; type: functional; conditions: MOLT-4, 48 h
U-251 = experiment: Growth inhibition of human U251 cells after 48 hrs by sulforhodamine B assay; type: functional; conditions: U-251, 48 h
[21] = Growth inhibition of human OVCAR4 cells after 48 hrs by sulforhodamine B assay; type: functional; conditions: OVCAR-4, 48 h
SN12C = experiment: Growth inhibition of human SN12C cells after 48 hrs by sulforhodamine B assay; type: functional
MDA-MB-468 = experiment: Growth inhibition of human MDA-MB-468 cells after 48 hrs by sulforhodamine B assay; type: functional; conditions: MDA-MB-468, 48 h
[22] = Antiangiogenic activity in VEGF-165 and bFGF-stimulated chicken embryo chorioallantoic membrane assessed as inhibition of blood vessel formation after 40 hrs by microscopy; type: functional, tissue-based, Gallus gallus
MDA-MB-435 [23] = experiment: Growth inhibition of human MDA-MB-435 cells after 48 hrs by sulforhodamine B assay; type: functional; conditions: MDA-MB-435, 48 h
CAKI-1 = experiment: Growth inhibition of human Caki1 cells after 48 hrs by sulforhodamine B assay; type: functional; conditions: CAKI-1, 48 h
786-0 = experiment: Growth inhibition of human 786-0 cells after 48 hrs by sulforhodamine B assay; type: functional; conditions: 786-0, 48 h
MDA-MB-231 = experiment: Growth inhibition of human MDA-MB-231 cells after 48 hrs by sulforhodamine B assay; type: functional; conditions: MDA-MB-231, 48 h
[24] = Growth inhibition of human EKVX cells after 48 hrs by sulforhodamine B assay; type: functional
[25] = Growth inhibition of human COLO205 cells after 48 hrs by sulforhodamine B assay; type: functional; conditions: COLO 205, 48 h
SF-268 = experiment: Growth inhibition of human SF268 cells after 48 hrs by sulforhodamine B assay; type: functional; conditions: SF-268, 48 h
HT-29 = experiment: Growth inhibition of human HT-29 cells after 48 hrs by sulforhodamine B assay; type: functional; conditions: HT-29, 48 h
NCI/ADR-RES = experiment: Growth inhibition of human NCI/ADR-RES cells after 48 hrs by sulforhodamine B assay; type: functional
MDA-MB-435 [26] = experiment: Antiproliferative activity against human MDA-MB-435 cells after 48 hrs by sulforhodamine B assay; type: functional, cell-based; conditions: MDA-MB-435, 48 h
[27] = Antiproliferative activity against human SKOV3 cells overexpressing wild type beta3 tubulin after 48 hrs by sulforhodamine B assay; type: functional, cell-based; conditions: SK-OV-3, 48 h
IGROV-1 = experiment: Growth inhibition of human IGROV1 cells after 48 hrs by sulforhodamine B assay; type: functional; conditions: IGROV-1, 48 h
[28] = Growth inhibition of human HCC2998 cells after 48 hrs by sulforhodamine B assay; type: functional; conditions: HCC 2998, 48 h
[29] = Growth inhibition of human HCT15 cells after 48 hrs by sulforhodamine B assay; type: functional; conditions: HCT-15, 48 h
DU-145 = experiment: Growth inhibition of human DU145 cells after 48 hrs by sulforhodamine B assay; type: functional; conditions: DU-145, 48 h
NCI-H226 = experiment: Growth inhibition of human NCI-H226 cells after 48 hrs by sulforhodamine B assay; type: functional; conditions: NCI-H226, 48 h
SNB-75 = experiment: Growth inhibition of human SNB75 cells after 48 hrs by sulforhodamine B assay; type: functional; conditions: SNB-75, 48 h
SNB-19 = experiment: Growth inhibition of human SNB19 cells after 48 hrs by sulforhodamine B assay; type: functional; conditions: SNB-19, 48 h
[30] = Growth inhibition of human OVCAR5 cells after 48 hrs by sulforhodamine B assay; type: functional; conditions: OVCAR-5, 48 h
[31] = Growth inhibition of human LOXIMVI cells after 48 hrs by sulforhodamine B assay; type: functional; conditions: LOX IMVI
SK-OV-3 [32] = experiment: Growth inhibition of human SKOV3 cells after 48 hrs by sulforhodamine B assay; type: functional; conditions: SK-OV-3, 48 h
NCI-H460 = experiment: Growth inhibition of human NCI-H460 cells after 48 hrs by sulforhodamine B assay; type: functional; conditions: NCI-H460, 48 h
NCI-H23 = experiment: Growth inhibition of human NCI-H23 cells after 48 hrs by sulforhodamine B assay; type: functional; conditions: NCI-H23, 48 h
SW-620 = experiment: Growth inhibition of human SW620 cells after 48 hrs by sulforhodamine B assay; type: functional; conditions: SW-620, 48 h
SK-MEL-5 = experiment: Growth inhibition of human SK-MEL-5 cells after 48 hrs by sulforhodamine B assay; type: functional; conditions: SK-MEL-5, 48 h
[33] = Growth inhibition of human SF539 cells after 48 hrs by sulforhodamine B assay; type: functional; conditions: SF-539, 48 h
[34] = Growth inhibition of human BT549 cells after 48 hrs by sulforhodamine B assay; type: functional; conditions: BT-549, 48 h
HeLa [35] = experiment: Resistance ratio of IC50 for human HeLa cells overexpressing wild type beta3 tubulin to IC50 for human HeLa cells; type: functional

COc1ccc(N(C)c2nc(C)nc3oc(C)cc23)cc1
EC50 [1]: 103 nM | IC50 (Tubulin): 2400 nM

CCOc1ccc(N(C)c2nc(C)nc3oc(C)cc23)cc1
IC50 [2]: 30.8 nM | IC50 [3]: 121 nM | IC50 (A-431): 92.9 nM | IC50 [4]: > 500 nM | IC50 [5]: 132 nM

Cc1nc(N(C)c2ccc3occc3c2)c2cc(C)oc2n1
GI50 (SK-MEL-2): 82.4 nM | GI50 (NCI-H522): 29.9 nM | GI50 (M14): 47.3 nM | GI50 (KM12): 58.4 nM | GI50 (MCF7): 43.8 nM | GI50 [6]: 77.1 nM | IC50 (HeLa [7]): 243 nM | GI50 [8]: 389 nM | GI50 [9]: 41.7 nM | IC50 [2]: 509 nM | GI50 (SR): 62.4 nM | GI50 [10]: 57.2 nM | GI50 (ACHN): 265 nM | GI50 (K562): 40.4 nM | Ratio IC50 (SK-OV-3 [11]): 1.2 | GI50 [12]: 226 nM | GI50 [13]: 278 nM | GI50 (CCRF-CEM): 121 nM | GI50 (HOP-62): 75.2 nM | Ratio [14]: 28 | GI50 [15]: 330 nM | GI50 (TK-10): 382 nM | GI50 [16]: 30 nM | GI50 [17]: 183 nM | GI50 [18]: 57.1 nM | GI50 [19]: 51.7 nM | GI50 (HL-60(TB)): 41.2 nM | GI50 [20]: 211 nM | GI50 (U-251): 84 nM | GI50 [21]: 553 nM | GI50 (SN12C): 611 nM | GI50 (MDA-MB-468): 31.5 nM | IC50 [22]: 15200 nM | GI50 (MDA-MB-435 [23]): 21.1 nM | GI50 (CAKI-1): 57.9 nM | GI50 (786-0): 1040 nM | IC50 (A-431): 73.2 nM | GI50 (MDA-MB-231): 223 nM | GI50 [24]: 396 nM | GI50 [25]: 139 nM | GI50 (SF-268): 527 nM | GI50 (HT-29): 51.9 nM | GI50 (NCI/ADR-RES): 37.6 nM | IC50 (MDA-MB-435 [26]): 133 nM | IC50 [27]: 425 nM | GI50 (IGROV-1): 142 nM | GI50 [28]: 185 nM | GI50 [29]: 51.9 nM | GI50 (DU-145): 198 nM | GI50 (NCI-H226): 217 nM | GI50 (SNB-75): 103 nM | GI50 (SNB-19): 93.6 nM | GI50 [30]: 531 nM | GI50 [31]: 162 nM | GI50 (SK-OV-3 [32]): 98 nM | GI50 (NCI-H460): 138 nM | EC50 [1]: 3790 nM | GI50 (NCI-H23): 206 nM | GI50 (SW-620): 58.8 nM | GI50 (SK-MEL-5): 50.4 nM | GI50 [33]: 60.9 nM | GI50 [34]: 432 nM | Ratio IC50 (HeLa [35]): 0.8
